# Measured values as given in patent US20160016907A1, “PYRIDINE DERIVATIVES AS MUSCARINIC M1 RECEPTOR POSITIVE ALLOSTERIC MODULATORS” (PFIZER INC., priority 2014, published 2016).
# Structures can show the parent of a compound that is named as a salt.
# Molecular target: T1, human M1 muscarinic acetylcholine receptors (Homo sapiens, UniProt P11229)
# T1 sequence (P11229 1-460): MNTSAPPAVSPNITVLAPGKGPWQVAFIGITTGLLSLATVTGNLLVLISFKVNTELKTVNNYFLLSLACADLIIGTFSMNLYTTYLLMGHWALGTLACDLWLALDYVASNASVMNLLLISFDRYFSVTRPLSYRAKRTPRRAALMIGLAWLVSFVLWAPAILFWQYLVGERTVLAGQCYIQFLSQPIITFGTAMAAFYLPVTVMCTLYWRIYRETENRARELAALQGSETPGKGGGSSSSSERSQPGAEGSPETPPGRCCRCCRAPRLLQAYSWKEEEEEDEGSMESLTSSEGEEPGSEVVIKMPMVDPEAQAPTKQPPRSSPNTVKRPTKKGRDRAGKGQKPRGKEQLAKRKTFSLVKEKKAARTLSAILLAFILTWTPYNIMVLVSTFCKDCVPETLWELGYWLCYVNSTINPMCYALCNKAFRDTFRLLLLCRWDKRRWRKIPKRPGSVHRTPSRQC
# Assay: M1 FLIPR assay (PAM, intracellular calcium)
# Type: cell-based
# Conditions: potentiation of EC10-EC30 acetylcholine, values marked a: geometric mean of ≧7 determinations, read-out: M1 PAM Inflection Point (μM) Geometric mean of 2-6 determinations (unless otherwise indicated)
# Method: This assay was designed to select and characterize compounds that affect the activity of human M1 muscarinic acetylcholine receptors (Similar M1 PAM FLIPR assays can be found, for example, at U.S. Pat. No. 8,664,234). Human M1 receptors were stably expressed in Chinese hamster ovary (CHO) cells (HD Bioscience). The effect of test compounds on intracellular calcium was measured on an FLIPR Tetra (Molecular Devices) using the Fluo-8, AM calcium dye (Molecular Probes) with a red dye quenching agent (Sigma).
# CHO cells expressing hM1 cells had been previously cultured and frozen in assay ready vials. Cell vials were thawed, then plated at a density of 10,000 cells per well in a 384 well black wall, clear bottom plate (Greiner #781090) and incubated overnight at 37 degrees C. with 5% CO2. Cells were grown and plated in F12 nutrient media (Gibco BRL #21700-075) supplemented with 10% FBS (Hyclone #CH30160.03) and Pen/Strep (Gibco #15070-063).
# After overnight incubation, cell plates were removed from the incubator and the growth media was discarded and replaced with loading solution containing the following: 2 μM Fluo-8-AM (Molecular Probes #F14242), 2 mM Probenecid (Sigma #P8761), lx Acid Red 1 (Sigma #210633), in HBSS buffer containing (grams/L): 0.1 CaCl2, 0.1 MgCl2*6H2O, 0.049 MgSO4, 0.4 KCl, 0.06 KH2PO4, 8.06 NaCl, 0.12 Na2HPO4*12H2O, 1.1 D-glucose*H2O, 0.35 NaHCO3, 4.766 HEPES, pH 7.4. The plate was incubated in the loading solution at 37 degrees C. in the dark for 1 hour.
# Test compounds were initially prepared as 100% DMSO stock solutions, then transferred and serially diluted in 384-well compound plates (Greiner #784201). Each compound was tested at 10 concentrations in duplicate per experiment. Positive and negative controls for positive allosteric modulator evaluation were 30 μM acetylcholine (Ach) and an EC10-EC30 concentration of acetylcholine, approximately 2 nM but could be adjusted for each experiment to maintain the EC10-EC30 range.
# After the 1-hour dye loading incubation, test compounds were added to the cell plate containing Fluo-8. Approximately 10 minutes after compound addition, an EC10-EC30 concentration of acetylcholine was added to each well and the fluorescence measured to determine the PAM potentiation of the compound.
# Data was exported from the FLIPR Tetra as maximum fluorescence/minimum fluorescence for each well. The percent effect for each compound well was determined using the mean values for the positive and negative controls on each plate for each read. Percent effect was 100*(compound negative control)/(positive control negative control). Dose response curves were fitted to the compound percent effect data using a 4-parameter logistic fit model to determine PAM (positive allosteric modulator) Inflection Point values. Compounds with inverted U dose response curves had the concentrations greater than the concentration giving the peak response excluded from the fit. Data was reported as Inflection Point. The compounds of Examples 1-72 had activity according to this assay, generally with an Inflection Point (IP) of 10 μM or less (using Inflection Point as a measure of activity). Such a result is indicative of the intrinsic activity of the compounds of the invention as M1 allosteric modulators.
row,Structure (SMILES),EC50
1,"Cc1cnc(C(=O)NC2CCCC2O)cc1Cc1ccc(-n2cccn2)cc1 (racemic) [Example 34, N-[trans-2-hydroxycyclopentyl]-5-methyl-4-[4-(1H-pyrazol-1-yl)benzyl]pyridine-2-carboxamide]",1.02 µM
2,"Cc1nnc(-c2ccc(Cc3cc(C(=O)NC4CCOCC4O)ncc3C)cc2)o1 (single isomer, unassigned) [Example 21]",1.95 µM
3,"Cc1cnc(C(=O)NC2CCCCC2(F)F)cc1Cc1ccc(-n2cccn2)cc1 (single isomer, unassigned) [Example 47]",0.57 µM
4,"Cc1cnc(C(=O)N[C@H]2CCCC[C@@H]2O)cc1C(F)c1ccc(-n2cccn2)cc1 (single isomer, unassigned) [Example 63]",8.76 µM
5,"Cc1cnc(C(=O)N[C@H]2CCCC[C@@H]2O)cc1C(F)c1ccc(-n2cccn2)cc1 (single isomer, unassigned) [Example 64]",0.033 µM
6,"Cc1nc(-c2ccc(Cc3cc(C(=O)NC4CCOCC4O)ncc3C)cc2)co1 (single isomer, unassigned; (+)) [Example 11, (+)-N-[(3,4-trans)-3-Hydroxytetrahydro-2H-pyran-4-yl]-5-methyl-4-[4-(2-methyl-1,3-oxazol-4-yl)benzyl]pyridine-2-carboxamide]",0.146 µM
7,"Cc1cnc(C(=O)NC2CCCCC2O)cc1Cc1ccc(-n2cccn2)cc1 (single isomer, unassigned; (+)) [Example 13, (+)-N-[(1,2-cis)-2-Hydroxycyclohexyl]-5-methyl-4-[4-(1H-pyrazol-1-yl)benzyl]pyridine-2-carboxamide]",1.46 µM
8,"Cc1cnc(C(=O)NC2CCOCC2O)cc1Cc1ccc(-c2cncs2)cc1 (single isomer, unassigned; ent-1) [Example 4, N-[(3,4-trans)-3-Hydroxytetrahydro-2H-pyran-4-yl]-5-methyl-4-[4-(1,3-thiazol-5-yl)benzyl]pyridine-2-carboxamide, ENT-1]",8.11 µM
9,"Cc1cnc(C(=O)NC2CCOCC2O)cc1Cc1ccc(-c2cncs2)cc1 (single isomer, unassigned; ent-2) [Example 5, N-[(3,4-trans)-3-Hydroxytetrahydro-2H-pyran-4-yl]-5-methyl-4-[4-(1,3-thiazol-5-yl)benzyl]pyridine-2-carboxamide, ENT-2]",0.18 µM
10,"Cc1cnc(C(=O)N[C@H]2CCOC[C@@H]2O)cc1Cc1ccc(-c2cnn(C)c2)cc1F [Example 2, 4-[2-Fluoro-4-(1-methyl-1H-pyrazol-4-yl)benzyl]-N-[(3R,4S)-3-hydroxytetrahydro-2H-pyran-4-yl]-5-methylpyridine-2-carboxamide]",0.125 µM
11,"Cc1cnc(C(=O)N[C@H]2CCOC[C@@H]2O)cc1Cc1ccc(-c2nccs2)cc1 [Example 3, N-[(3R,4S)-3-Hydroxytetrahydro-2H-pyran-4-yl]-5-methyl-4-[4-(1,3-thiazol-2-yl)benzyl]pyridine-2-carboxamide]",0.101 µM
12,"Cc1cnc(C(=O)N[C@H]2CCOC[C@@H]2O)cc1Cc1ccc(-c2cscn2)cc1 [Example 7, N-[(3R,4S)-3-Hydroxytetrahydro-2H-pyran-4-yl]-5-methyl-4-[4-(1,3-thiazol-4-yl)benzyl]pyridine-2-carboxamide]",0.06 µM
13,"Cc1cnc(C(=O)N[C@@H]2CCOC[C@H]2O)cc1Cc1ccc(-n2cccn2)cc1 [Example 8, N-[(3S,4R)-3-Hydroxytetrahydro-2H-pyran-4-yl]-5-methyl-4-[4-(1H-pyrazol-1-yl)benzyl]pyridine-2-carboxamide]",4.86 µM
14,"Cc1nc(C(=O)N[C@H]2CCOC[C@@H]2O)cc(Cc2ccc(-n3cccn3)cc2)c1Cl [Example 14, 5-Chloro-N-[(3R,4S)-3-hydroxytetrahydro-2H-pyran-4-yl]-6-methyl-4-[4-(1H-pyrazol-1-yl)benzyl]pyridine-2-carboxamide]",0.116 µM
15,"Cc1cnc(C(=O)NC[C@@H]2CCCO2)cc1Cc1ccc(-n2cccn2)cc1 [Example 16, 5-Methyl-4-[4-(1H-pyrazol-1-yl)benzyl]-N-[(2S)-tetrahydrofuran-2-ylmethyl]pyridine-2-carboxamide, formate salt]",1.82 µM
16,"Cc1nc(C(=O)N[C@H]2CCCC[C@@H]2O)cc(Cc2ccc(-n3cccn3)cc2)c1Cl [Example 17, 5-Chloro-N-[(1S,2S)-2-hydroxycyclohexyl]-6-methyl-4-[4-(1H-pyrazol-1-yl)benzyl]pyridine-2-carboxamide]",0.191 µM
17,"Cc1cnc(C(=O)N[C@H]2CCCC[C@@H]2O)cc1Cc1ccc(-n2cccn2)cc1 [Example 18, N-[(1S,2S)-2-Hydroxycyclohexyl]-5-methyl-4-[4-(1H-pyrazol-1-yl)benzyl]pyridine-2-carboxamide]",0.092 µM
18,"Cc1nc(-c2ccc(Cc3cc(C(=O)N[C@H]4CCOC[C@@H]4O)ncc3C)cc2)no1 [Example 19, N-[(3R,4S)-3-hydroxytetrahydro-2H-pyran-4-yl]-5-methyl-4-[4-(5-methyl-1,2,4-oxadiazol-3-yl)benzyl]pyridine-2-carboxamide]",5.57 µM

# The remaining lines, values ahead:
row,EC50,Structure (SMILES)
1,1.63 µM,"Cc1cnc(C(=O)NC2CCCC2O)cc1Cc1ccc(-n2cccn2)cc1 (racemic) [Example 49, N-[cis-2-hydroxycyclopentyl]-5-methyl-4-[4-(1H-pyrazol-1-yl)benzyl]pyridine-2-carboxamide]"
2,> 9.94 µM,"Cc1nnc(-c2ccc(Cc3cc(C(=O)NC4CCOCC4O)ncc3C)cc2)o1 (single isomer, unassigned) [Example 20]"
3,1.22 µM,"Cc1cnc(C(=O)NC2CCCCC2(F)F)cc1Cc1ccc(-n2cccn2)cc1 (single isomer, unassigned) [Example 46]"
4,6.34 µM,"Cc1nc(-c2ccc(Cc3cc(C(=O)NC4CCOCC4O)ncc3C)cc2)co1 (single isomer, unassigned; (-)) [Example 10, (−)-N-[(3,4-trans)-3-Hydroxytetrahydro-2H-pyran-4-yl]-5-methyl-4-[4-(2-methyl-1,3-oxazol-4-yl)benzyl]pyridine-2-carboxamide]"
5,0.96 µM,"Cc1cnc(C(=O)NC2CCCCC2O)cc1Cc1ccc(-n2cccn2)cc1 (single isomer, unassigned; (-)) [Example 12, (−)-N-[(1,2-cis)-2-Hydroxycyclohexyl]-5-methyl-4-[4-(1H-pyrazol-1-yl)benzyl]pyridine-2-carboxamide]"
6,1.83 µM,"Cc1cnc(C(=O)N[C@H]2CCOC[C@@H]2O)cc1C(F)c1ccc(-c2cscn2)cc1 (single isomer, unassigned; diastereomer 1) [Example 59]"
7,0.142 µM,"Cc1cnc(C(=O)N[C@H]2CCOC[C@@H]2O)cc1Cc1ccc(-c2ccn(C)n2)cc1 [Example 6, N-[(3R,4S)-3-Hydroxytetrahydro-2H-pyran-4-yl]-5-methyl-4-[4-(1-methyl-1H-pyrazol-3-yl)benzyl]pyridine-2-carboxamide]"
8,0.109 µM,"Cc1cnc(C(=O)N[C@H]2CCOC[C@@H]2O)cc1Cc1ccc(-n2cccn2)cc1 [Example 9, N-[(3R,4S)-3-Hydroxytetrahydro-2H-pyran-4-yl]-5-methyl-4-[4-(1H-pyrazol-1-yl)benzyl]pyridine-2-carboxamide]"
9,0.065 µM,"COc1cnc(C(=O)N[C@H]2CCOC[C@@H]2O)cc1Cc1ccc(-n2cccn2)cc1 [Example 15, N-[(3R,4S)-3-Hydroxytetrahydro-2H-pyran-4-yl]-5-methoxy-4-[4-(1H-pyrazol-1-yl)benzyl]pyridine-2-carboxamide]"
